Assay results published in patent publication US8476197B2, “Aminopropenoates as fungicides” (priority 2009, dated 2013).
Where two headings read alike, the source gives them in different places. Marks after values point to notes of the source that are not given here.

Row | SMILES | Log P (pH 7.5) | Log P (pH 2.7) | Log P (pH 2.3)
1 | CC(C)OC(=O)C(C#N)=C(NC(C)C(C)C)c1cccnc1Cl (stereo not shown) [Compound 946] | 3.69 | – | –
2 | CCOC(=O)C(C#N)=C(NC(C)C(C)C)c1cc(C)oc1C (stereo not shown) [Compound 947] | – | 3.99^[a] | –
3 | COC(=O)C(C#N)=C(NC(C)C(C)C)c1sc(C)nc1C(F)(F)F (stereo not shown) [Compound 948] | – | 3.63^[a] | –
4 | CCOC(=O)C(C#N)=C(NC(C)C(C)C)c1sc(C)nc1C(F)(F)F (stereo not shown) [Compound 949] | – | 3.95^[a] | –
5 | CCOC(=O)C(C#N)=C(NC(C)C(C)C)c1ccc(C)nc1Cl (stereo not shown) [Compound 950] | 3.63 | – | –
6 | CCOC(=O)C(C#N)=C(NC(C)C(C)C)c1sccc1Cl (stereo not shown) [Compound 951] | – | 4.08^[a] | –
7 | CCOC(=O)C(C#N)=C(NC(C)C(C)C)c1cccnc1Cl (stereo not shown) [Compound 952] | 3.33 | 3.37 | –
8 | CCOC(=O)C(C#N)=C(NC(C)C(C)C)c1cccnc1C (stereo not shown) [Compound 953] | 2.89 | – | 2.63
9 | CCOC(=O)C(C#N)=C(NC(C)C(C)C)c1c(C(F)F)nn(C)c1Cl (stereo not shown) [Compound 954] | – | 3.63^[a] | –
10 | C=CCOC(=O)C(C#N)=C(NC(C)C(C)C)c1cccnc1Cl (stereo not shown) [Compound 955] | 3.49 | 3.55 | –
11 | CC(C)C(C)NC(=C(C#N)C(=O)O)c1cccnc1Cl (stereo not shown) [Compound 956] | – | 2.2^[a] | –
12 | CCNC(=O)C(C#N)=C(NC(C)C(C)C)c1cccnc1Cl (stereo not shown) [Compound 958] | – | 2.94 | –
13 | CONC(=O)C(C#N)=C(NC(C)C(C)C)c1cccnc1Cl (stereo not shown) [Compound 960] | 2.26 | – | 2.31
14 | CCOC(=O)C(C#N)=C(NC(C)C(C)C)c1cccnc1OC (stereo not shown) [Compound 961] | 3.52^[c]; 3.52^[b] | – | 3.52^[c]; 3.52^[b]
15 | C=CCOC(=O)C(C#N)=C(NC(C)C(C)C)c1sccc1Br (stereo not shown) [Compound 962] | – | 4.34^[a] | –
16 | CC(C)C(C)NC(=C(C#N)C(=O)O)c1sccc1Br (stereo not shown) [Compound 964] | – | 2.74^[a] | –
17 | CCOC(=O)C(C#N)=C(NC(C)C(C)C)c1cc(Cl)sc1Cl (stereo not shown) [Compound 965] | – | 4.72^[a] | –
18 | CCOC(=O)C(C#N)=C(NC(C)C(C)C)c1nc(Cl)ccc1Cl (stereo not shown) [Compound 966] | – | 4.06^[a] | –
19 | CCOC(=O)C(C#N)=C(NC(C)C(C)C)c1ncc(Cl)cc1Cl (stereo not shown) [Compound 967] | – | 4.19^[a] | –
20 | CCOC(=O)C(C#N)=C(NC(C)C(C)C)c1cnc(Cl)cc1Cl (stereo not shown) [Compound 968] | – | 3.96^[a] | –
21 | CCOC(=O)C(C#N)=C(NC(C)C(C)C)c1cn(C)nc1OC (stereo not shown) [Compound 969] | – | 3.06^[a] | –
22 | CCOC(=O)C(C#N)=C(NC(C)C(C)C)c1cccnc1C(F)(F)F (stereo not shown) [Compound 970] | – | 3.62^[a] | –
23 | C=Cc1nn(C)cc1C(NC(C)C(C)C)=C(C#N)C(=O)OCC (stereo not shown) [Compound 971] | – | 3.06^[a] | –
24 | CCOC(=O)C(C#N)=C(NC(C)C(C)C)c1nc(SC)ncc1Br (stereo not shown) [Compound 972] | – | 4.26^[a] | –

Row | SMILES | Log P (pH 7.5) | Log P (pH 2.7) | Log P (pH 2.3)
25 | CCOC(=O)C(C#N)=C(NC(C)C(C)C)c1sc(Cl)nc1Cl (stereo not shown) [Compound 973] | – | 4.23^[a] | –
26 | CCOC(=O)C(C#N)=C(NC(C)C(C)C)c1cccnc1-c1ccc(Cl)cc1 (stereo not shown) [Compound 974] | 4.08 | – | 4.09
27 | CCOC(=O)C(C#N)=C(NC(C)C(C)C)c1cccnc1-c1cc(Cl)cc(Cl)c1 (stereo not shown) [Compound 975] | 4.67 | – | 4.68
28 | C=Cc1ncccc1C(NC(C)C(C)C)=C(C#N)C(=O)OCC (stereo not shown) [Compound 976] | 3.26 | – | 3.24
29 | CCOC(=O)C(C#N)=C(NC(C)C(C)C)c1cc(Cl)ncc1Cl (stereo not shown) [Compound 977] | – | 3.96^[a] | –
30 | CCOC(=O)C(C#N)=C(NC(C)C(C)C)c1ccncc1Cl (stereo not shown) [Compound 978] | – | 3.29^[a] | –
31 | CCOC(=O)C(C#N)=C(NC(C)C(C)C)c1cccnc1C(C)=O (stereo not shown) [Compound 980] | 3.08 | – | 3.11
32 | CCOC(=O)C(C#N)=C(NC(C)C(C)C)c1cccnc1C(F)F (stereo not shown) [Compound 981] | – | 3.15^[a] | –
33 | CCOC(=O)C(C#N)=C(NC(C)C(C)C)c1cnccc1C(F)(F)F (stereo not shown) [Compound 982] | – | 3.5^[a] | –
34 | CCOC(=O)C(C#N)=C(NC(C)C(C)C)c1cc(Cl)cc(Cl)n1 (stereo not shown) [Compound 983] | – | 4.26^[a] | –
35 | CCOC(=O)C(C#N)=C(NC(C)C(C)C)c1cccnc1Cl (stereo not shown) [Compound 984] | 3.22 | 3.33 | 3.22
36 | CCOC(=O)C(C#N)=C(NC(C)C(C)C)c1cccnc1C(C)=NO (stereo not shown) [Compound 985] | 2.67 | – | 2.69
37 | CCOC(=O)C(C#N)=C(NC(C)C(C)C)c1ccc(Cl)nc1Cl (stereo not shown) [Compound 986] | 3.85^[c]; 3.85^[b] | – | 3.85^[c]; 3.85^[b]
38 | CCCNC(=O)C(C#N)=C(NC(C)C(C)C)c1cccnc1Cl (stereo not shown) [Compound 988] | 3.22 | – | 3.24
39 | CNC(=O)C(C#N)=C(NC(C)C(C)C)c1cccnc1Cl (stereo not shown) [Compound 989] | 2.41^[c]; 2.41^[b] | – | 2.41^[c]; 2.41^[b]
40 | CC(C)C(C)NC(=C(C#N)C(=O)On1nnc2ccccc21)c1cccnc1Cl (stereo not shown) [Compound 990] | 3.21 | – | 3.22
41 | C#CCNC(=O)C(C#N)=C(NC(C)C(C)C)c1cccnc1Cl (stereo not shown) [Compound 991] | 2.68 | – | 2.69
42 | CC(C)C(C)NC(=C(C#N)C(=O)NCC(F)(F)F)c1cccnc1Cl (stereo not shown) [Compound 992] | 3.16 | – | 3.17
43 | CC(C)C(C)NC(=C(C#N)C(N)=O)c1cccnc1Cl (stereo not shown) [Compound 993] | 1.96 | – | 1.97
44 | CCOC(=O)C(C#N)=C(NC(C)C(C)C)c1ccnc(Cl)c1Cl (stereo not shown) [Compound 994] | – | 3.92^[a] | –
45 | CCOC(=O)C(C#N)=C(NC(C)C(C)C)c1ccncc1Br (stereo not shown) [Compound 996] | – | 3.33^[a] | –
46 | CCOC(=O)C(C#N)=C(NC(C)C(C)C)c1ccncc1F (stereo not shown) [Compound 997] | – | 3.08^[a] | –
47 | C=CCOC(=O)C(C#N)=C(NC(C)C(C)C)c1cn(C)nc1C(F)F (stereo not shown) [Compound 998] | – | 3.31^[a] | –
48 | CCOC(=O)C(C#N)=C(NC(C)C(C)C)c1c(C(F)(F)F)nn(C)c1F (stereo not shown) [Compound 999] | – | 3.93^[a] | –

Row | SMILES | Log P (pH 7.5) | Log P (pH 2.7) | Log P (pH 2.3)
49 | CCOC(=O)C(C#N)=C(NC(C)C(C)C)c1cn(C)nc1C(F)F (stereo not shown) [Compound 1003] | – | 3.15^[a] | –
50 | COCCNC(=O)C(C#N)=C(NC(C)C(C)C)c1cn(C)nc1C(F)F (stereo not shown) [Compound 1005] | – | 2.59^[a] | –
51 | CC(C)C(C)NC(=C(C#N)C(=O)NC1CC1)c1cn(C)nc1C(F)F (stereo not shown) [Compound 1006] | – | 2.66^[a] | –
52 | C=CCNC(=O)C(C#N)=C(NC(C)C(C)C)c1cn(C)nc1C(F)F (stereo not shown) [Compound 1007] | – | 2.9^[a] | –
53 | C=CCNC(=O)C(C#N)=C(NC(C)C(C)C)c1cn(C)nc1C(F)F (stereo not shown) [Compound 1008] | – | 2.68^[a] | –
54 | COC(=O)C(C#N)=C(NC1(C)CCCCC1)c1cccnc1Cl [Compound 1009] | – | 3.13^[a] | –
55 | COC(=O)C(C#N)=C(NC(C)(C)C#N)c1sc(C)nc1C(F)(F)F [Compound 1010] | – | 3.04^[a] | –
56 | CCOC(=O)C(C#N)=C(NC(C)(C)C#N)c1nc(Cl)ccc1Cl [Compound 1011] | – | 2.98^[a] | –
57 | C=CCCCC(C=C)NC(=C(C#N)C(=O)OC)c1sc(C)nc1C(F)(F)F (stereo not shown) [Compound 1019] | – | 4.19^[a] | –
58 | C=CCCCC(C=C)NC(=C(C#N)C(=O)OCC)c1conc1C (stereo not shown) [Compound 1020] | – | 3.81^[a] | –
59 | C=CCCCC(C=C)NC(=C(C#N)C(=O)OCC)c1cn(C)nc1C(F)(F)F (stereo not shown) [Compound 1021] | – | 4.14^[a] | –
60 | C=CCCCC(C=C)NC(=C(C#N)C(=O)OCC)c1sc(C)nc1C(F)(F)F (stereo not shown) [Compound 1022] | – | 4.49^[a] | –
61 | C=CCCCC(C=C)NC(=C(C#N)C(=O)OCC)c1sccc1Cl (stereo not shown) [Compound 1023] | – | 4.65^[a] | –
62 | C=CCCCC(C=C)NC(=C(C#N)C(=O)OCC)c1ccsc1I (stereo not shown) [Compound 1024] | – | 4.65^[a] | –
63 | CCC#CC(C)(C)NC(=C(C#N)C(=O)OC)c1cccnc1Cl [Compound 1025] | – | 2.98^[a] | –
64 | C#CC(C)(C)NC(=C(C#N)C(=O)OCC)c1sccc1Br [Compound 1027] | – | 3.42^[a] | –
65 | C#CC(C)(C)NC(=C(C#N)C(=O)OCC)c1ccsc1Br [Compound 1029] | – | 3.42^[a] | –
66 | C#CC(C)(C)NC(=C(C#N)C(=O)OCC)c1conc1C [Compound 1030] | – | 2.66^[a] | –
67 | C#CC(C)(C)NC(=C(C#N)C(=O)OCC)c1cn(C)nc1C(F)(F)F [Compound 1031] | – | 3.02^[a] | –
68 | C#CC(C)(C)NC(=C(C#N)C(=O)OCC)c1sccc1Cl [Compound 1032] | – | 3.41^[a] | –
69 | C#CC(C)(C)NC(=C(C#N)C(=O)OCC)c1cc(Cl)sc1Cl [Compound 1033] | – | 3.99^[a] | –
70 | C#CC(C)(C)NC(=C(C#N)C(=O)OCC)c1cn(C)nc1OC [Compound 1034] | – | 2.44^[a] | –
71 | C#CC(C)(C)NC(=C(C#N)C(=O)OCC)c1cn(C)nc1C=C [Compound 1035] | – | 2.54^[a] | –
72 | C#CC(C)(C)NC(=C(C#N)C(=O)OCC)c1sc(Cl)nc1Cl [Compound 1036] | – | 3.61^[a] | –
